Like-named read-outs stand apart in the source and are kept apart here.

Data set [1] concerns LPS-activated NO production in RAW 264.7 macrophages. Nature of the data set: Inhibition of LPS-induced NO production (Griess reagent assay, nitrite). The note with it: for IC50: Mus musculus, read-out: IC50 NO; for fold NO inhibitory activity compared with quercetin: ratio to quercetin IC50 34.58 μM; for NO inhibitory activity (in words): LPS-induced NO production in RAW 264.7. The format is cell-based, mouse. The procedure:
The anti-inflammatory activities of the 5 isolates (2–6) in sufficient amounts were evaluated by examining their inhibitory effects on lipopolysaccharide (LPS)-induced inducible nitric oxide synthase (iNOS)-dependent NO 6 production in the murine macrophage cell line RAW 264.7 (Table 4). From the results of our anti-inflammatory tests, the following conclusions could be drawn.
(§1) The mouse macrophage cell line (RAW 264.7) was obtained from the Bioresource Collection and Research Center (BCRC 60001) and cultured at 37 °C in Dulbecco’s Modified Eagle’s Medium (DMEM) supplemented with 10% fetal bovine serum (Gibco), 4.5 g/L glucose, 4 mM glutamine, penicillin (100 units/mL), and streptomycin (100 μg/mL) in a humidified atmosphere in a 5% CO2 incubator. The cells were treated with 10, 25, and 50 μM of natural products in the presence of 1 μg/mL lipopolysaccharide (LPS, Sigma-Aldrich) for 20 h. The concentration of NO in the culture supernatants was determined to be nitrite, a major stable product of NO, by a Griess reagent assay, and cell viabilities were determined using the MTT assay as described previously.

Data set [2] is described as follows: Cell viability (MTT assay). The format is cell-based, mouse. To be noted: mouse. The procedure:
(§2) The cytotoxic effects were tested using an MTT experiment.
as §1
For orientation: Tetrazolium assays rely on reduction of a dye to a coloured formazan, in cell work by metabolically active cells.

Another data set has as its system RAW 264.7 macrophages. In words: Cell viability (MTT assay). Type of data set: cell-based, mouse. The procedure: as §2, §1
[3] abbreviates: RAW264.7, RAW 264.7, 1 μg/mL LPS, 20 h, mean ± SEM (n = 4) of 3 independent experiments.

As a reminder, the IC50 is the midpoint of a concentration-inhibition curve. For orientation: viability means the share of living cells, or the viability signal relative to a control. Low readings indicate a greater loss of cells, high ones better survival. On to `CC(=O)OC(C)(C)C1OC23OC1CC(C)C2C1(C)C(O)CC2=C(CCC4C5(CCC(O5)C4(C)C)C2)C1(C)C3O` (stereo not drawn) [Compound 2, 25-O-acetyl-12β-hydroxyacerinol], for which the IC50 in data set [1] (setting [3]) was determined as 8.37 ± 3.25 µM. In addition, the “fold NO inhibitory activity compared with quercetin” value (“fold NO inhibitory activity” below) in data set [1] is reported as “about four”. Besides, in data set [2], the viability at 20 h, 50 µM was under 80%. Also, the “Cell Viability (% Control)” value with RAW 264.7 macrophages (50 µM) is 69.14 ± 2.87 % Control.
Usually melting point stands for the temperature of the solid-liquid transition. Compound `CC(=O)OC(C)(C)C1OC23OC1CC(C)C2C1(C)CC(=O)C2=C(C(O)CC4C5(CCC(O5)C4(C)C)C2)C1(C)C3O` (stereo not drawn) [Compound 3, 25-O-acetyl-7β-hydroxy-11-oxoacerinol] had a melting point of 103 to 105 °C. In addition, in data set [1], the “NO inhibitory activity (in words)” value is listed as “showed inhibitory activities” and the “fold NO inhibitory activity” value is reported as “five”. Moreover, the IC50 in data set [1] (setting [3]) was determined as 6.54 ± 0.87 µM. Besides, the viability at 20 h, 50 µM in data set [2] was 95%. The “Cell Viability (% Control)” value with RAW 264.7 macrophages (50 µM) is 95.53 ± 3.39 % Control.
Regarding `CC(=O)OC(C)(C)C1OC23OC1CC(C)C2C1(C)CCC2=C(CCC4C(=CCC(OC5OCC(O)C(O)C5O)C4(C)C)C2)C1(C)C3O` (stereo not drawn) [Compound 4, cimicitaiwanin D], in data set [1], the “NO inhibitory activity (in words)” value is on record as “showed inhibitory activities” and the “fold NO inhibitory activity” value is given as “three”. In addition, the IC50 in data set [1] (setting [3]) came to 10.1 ± 0.47 µM. The compound further returned a viability at 20 h, 50 µM in data set [2] of 91%. The “Cell Viability (% Control)” value in the data set with RAW 264.7 macrophages (50 µM) amounted to 91.12 ± 4.22 % Control.
Turning to `CC1CC2OC3(OC2C(C)(C)O)C1C1(C)CCC24CC25C=CC(=O)C(C)(C)C5CC=C4C1(C)C3O` (stereo not drawn) [Compound 5, cimicitaiwanin E], the “NO inhibitory activity (in words)” value in data set [1] is on record as “moderate”; in data set [1] (listed as Cimicitaiwanin E) it was “showed inhibitory activities”. In data set [1] (RAW264.7, 20 h), the IC50 was found to be 24.6 ± 4.97 µM. For the same compound, the viability at 20 h, 50 µM in data set [2] was determined as 89%. Also, the “Cell Viability (% Control)” value with RAW 264.7 macrophages (50 µM) came to 88.54 ± 1.50 % Control.
Regarding `CC(C=CC1C(C)CC(O)CC1(C)C)=CC(=O)O` [Compound 6, rel-(2E,4E)-5-((3S,5R,6R,)-4-hydroxy-2,2,6-trimethylcyclohexyl)-3-methylpenta-2,4-dienoic acid], in data set [1], the “NO inhibitory activity (in words)” value is recorded as “showed inhibitory activities” and the “fold NO inhibitory activity” value is “two”. Moreover, the IC50 in data set [1] (setting [3]) came to 15.4 ± 0.85 µM. In data set [2], this compound showed a viability at 20 h, 50 µM of 87%. For the same compound, the “Cell Viability (% Control)” value in the data set with RAW 264.7 macrophages (50 µM) amounted to 86.84 ± 2.95 % Control.
`O=c1c(O)c(-c2ccc(O)c(O)c2)oc2cc(O)cc(O)c12` [Quercetin, quercetin, reference compound]: the IC50 in data set [1] (setting [3]) came out at 34.6 ± 2.34 µM. The “Cell Viability (% Control)” value in the data set on RAW 264.7 macrophages (RAW 264.7, MTT, mean ± SEM, concentration not given in table (text: 50 μM)) was found to be 95.56 ± 1.91 % Control.

The values are drawn from publication PMC8912030, “Secondary Metabolites with Anti-Inflammatory from the Roots of Cimicifuga taiwanensis” (Molecules, 2022).
